Experimental data published in ChEMBL document CHEMBL5113479, “Pyrido[2,3-d]pyrimidine-2,4(1H,3H)-dione derivatives as RAF-MEK-ERK pathway signaling pathway blockers: Synthesis, cytotoxic activity, mechanistic investigation and structure-activity relationships” (Eur J Med Chem, 2022).

Assays:
MCF7 = test: Antiproliferative activity against human MCF7 cells assessed as inhibition of cell growth measured after 72 hrs by CCK8 assay; format: functional, cell-based; conditions: MCF7, 72 h
A-375 = test: Antiproliferative activity against human A-375 cells assessed as inhibition of cell growth measured after 72 hrs by CCK8 assay; format: functional, cell-based; conditions: A-375, 72 h
[1] = Cytotoxicity against human C-28/I2 cells measured after 72 hrs by CCK8 assay; format: toxicity, cell-based
SK-MEL-2 = test: Antiproliferative activity against human SK-MEL-2 cells assessed as inhibition of cell growth measured after 72 hrs by CCK8 assay; format: functional, cell-based; conditions: SK-MEL-2, 72 h
SK-HEP1 = test: Antiproliferative activity against human SK-HEP1 cells assessed as inhibition of cell growth measured after 72 hrs by CCK8 assay; format: functional, cell-based; conditions: SK-HEP1, 72 h

Compound	IC50 (MCF7) [µM]	IC50 (A-375) [µM]	CC50 at 72 h [1] [µM]	IC50 (SK-MEL-2) [µM]	IC50 (SK-HEP1) [µM]
Cc1ccccc1NC(=O)CNc1cc(=O)n(C)c2c1c(=O)n(C)c(=O)n2C	17.2	13	> 100	–	–
Cn1c(=O)c2c(NCC(=O)Nc3ccc(C(F)(F)F)cc3)cc(N3CCOCC3)nc2n(C)c1=O	46.6	> 50	> 100	–	–
CN(C)c1cc(NCC(=O)Nc2ccc(C(F)(F)F)cc2)c2c(=O)n(C)c(=O)n(C)c2n1	–	43.2	> 50	> 50	–
CCn1c(=O)n(C)c(=O)c2c(Nc3ccccn3)cc(=O)n(C)c21	35	39.5	> 100	–	–
Cn1c(=O)c2c(NCC(=O)Nc3ccc(OC(F)(F)F)cc3)cc(N3CCCC3)nc2n(C)c1=O	36.2	> 50	> 100	–	–
Cn1c(=O)c2c(NCC(=O)Nc3ccc(F)cc3)cc(N3CCOCC3)nc2n(C)c1=O	45.4	> 50	> 100	–	–
CN(C)c1cc(NCC(=O)Nc2cccc(C(F)(F)F)c2)c2c(=O)n(C)c(=O)n(C)c2n1	–	31.9	> 100	> 50	–
Cn1c(=O)c2c(Nc3ccccn3)cc(=O)n(C)c2n(C)c1=O	10.2	25	> 100	–	–
Cc1ccccc1NC(=O)CNc1cc(N(C)C)nc2c1c(=O)n(C)c(=O)n2C	49.9	> 50	> 100	–	–
COC(=O)c1ccccc1Nc1cc(=O)n(C)c2c1c(=O)n(C)c(=O)n2C	33.4	> 50	> 100	–	–
Cc1ccccc1NC(=O)CNc1cc(N2CCCC2)nc2c1c(=O)n(C)c(=O)n2C	15.8	7.6	> 100	6.59	10.7
Cn1c(=O)c2c(NCC(=O)Nc3ccc(Cl)cc3)cc(N3CCOCC3)nc2n(C)c1=O	–	43.2	> 100	46.5	–
CN(C)c1cc(NCC(=O)Nc2ccc(OC(F)(F)F)cc2)c2c(=O)n(C)c(=O)n(C)c2n1	–	39.2	> 25	> 50	–
CN1CCN(c2cc(NCC(=O)Nc3ccc(Cl)cc3)c3c(=O)n(C)c(=O)n(C)c3n2)CC1	> 50	> 50	> 25	22.4	> 50
Cn1c(=O)c2c(NCC(=O)Nc3ccccc3)cc(N3CCCC3)nc2n(C)c1=O	42.3	> 50	> 100	–	–
CN(C)c1cc(NCC(=O)Nc2ccc(Cl)cc2)c2c(=O)n(C)c(=O)n(C)c2n1	49.2	> 50	> 100	–	–
CCn1c(=O)n(C)c(=O)c2c(Nc3ccc(F)c(Cl)c3)cc(=O)n(C)c21	> 50	> 50	> 100	–	–
Cn1c(=O)c2c(NCCCN3CCOCC3)c(Cc3ccccc3)c(=O)n(C)c2n(C)c1=O	> 50	> 50	> 100	–	–

Compound	IC50 (MCF7) [µM]	IC50 (A-375) [µM]	CC50 at 72 h [1] [µM]	IC50 (SK-MEL-2) [µM]	IC50 (SK-HEP1) [µM]
CN1CCN(c2cc(NCC(=O)Nc3ccc(F)cc3)c3c(=O)n(C)c(=O)n(C)c3n2)CC1	32.9	44.7	> 50	19.9	34.2
CN(C)CCNc1c(Cc2ccccc2)c(=O)n(C)c2c1c(=O)n(C)c(=O)n2C	> 50	> 50	> 100	–	–
O=c1[nH]cc(F)c(=O)[nH]1 [FLUOROURACIL]	7.42	5.98	–	6.52	4.95
Cn1c(=O)c2c(NC3CC3)c(Cc3ccccc3)c(=O)n(C)c2n(C)c1=O	35.9	45.9	> 100	–	–
CN1CCN(c2cc(NCC(=O)Nc3cccc(C(F)(F)F)c3)c3c(=O)n(C)c(=O)n(C)c3n2)CC1	–	45	> 100	> 50	–
Cn1c(=O)c2c(Nc3ccc(F)c(Cl)c3)cc(=O)n(C)c2n(C)c1=O	> 50	49.6	> 100	–	–
Cn1c(=O)c2c(NCC(=O)Nc3ccc(F)cc3)cc(N3CCCC3)nc2n(C)c1=O	39.6	> 50	> 100	–	–
Cn1c(=O)c2c(NCC(=O)Nc3ccc(Cl)cc3)cc(N3CCCC3)nc2n(C)c1=O	41.2	48.2	> 100	–	–
CN1CCN(c2cc(NCC(=O)Nc3ccc(C(F)(F)F)cc3)c3c(=O)n(C)c(=O)n(C)c3n2)CC1	> 50	> 50	> 50	46.4	–
Cn1c(=O)c2c(Nc3ccc(OC(F)(F)F)cc3)cc(=O)n(C)c2n(C)c1=O	49.8	40.7	> 100	–	–
CN(C)c1cc(NCC(=O)Nc2cccc(Cl)c2)c2c(=O)n(C)c(=O)n(C)c2n1	–	> 50	> 100	41.2	–
CCn1c(=O)n(C)c(=O)c2c(Nc3ccccc3C(=O)OC)cc(=O)n(C)c21	> 50	> 50	> 100	–	–
CN(C)c1cc(NCC(=O)Nc2ccc(F)cc2)c2c(=O)n(C)c(=O)n(C)c2n1	47.5	45.7	> 100	–	–
Cn1c(=O)c2c(NCC(=O)Nc3cccc(Cl)c3)cc(N3CCCC3)nc2n(C)c1=O	–	48.6	> 100	> 50	–
Cc1cccc(NC(=O)CNc2cc(N3CCN(C)CC3)nc3c2c(=O)n(C)c(=O)n3C)c1	–	40	> 25	42.3	17.3
Cn1c(=O)c2c(NCC(=O)Nc3cccc(C(F)(F)F)c3)cc(N3CCOCC3)nc2n(C)c1=O	12	7.36	> 100	4.03	11
CC(C)Nc1c(Cc2ccccc2)c(=O)n(C)c2c1c(=O)n(C)c(=O)n2C	9.98	24.5	> 100	–	–
CN1CCN(c2cc(NCC(=O)Nc3ccc(OC(F)(F)F)cc3)c3c(=O)n(C)c(=O)n(C)c3n2)CC1	39.3	30.5	> 100	36.6	34
